Key:
Integrase [1] = target: T1, Integrase (Human immunodeficiency virus 1, UniProt Q7ZJM1); experiment: Inhibition of HIV-1 integrase enzyme at 3`- processing stage of DNA integration
Integrase [2] = target: T1, Integrase; experiment: Inhibitory concentration as 50% inhibition of HIV-1 integrase enzyme at strand transfer stage of DNA integration.

T1 sequence (Q7ZJM1 whole entry): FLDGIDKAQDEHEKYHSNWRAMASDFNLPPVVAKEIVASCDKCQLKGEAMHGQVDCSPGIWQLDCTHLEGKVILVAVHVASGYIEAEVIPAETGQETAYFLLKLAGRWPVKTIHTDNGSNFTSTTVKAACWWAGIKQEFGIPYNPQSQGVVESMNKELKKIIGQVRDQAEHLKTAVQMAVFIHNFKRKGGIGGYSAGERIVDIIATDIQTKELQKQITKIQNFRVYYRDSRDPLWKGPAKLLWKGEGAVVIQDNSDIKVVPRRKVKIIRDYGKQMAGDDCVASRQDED

| SMILES | IC50 (Integrase [1]) | IC50 (Integrase [2]) |
| --- | --- | --- |
| C=c1[nH]n(C(=O)c2ccc(Cl)cc2)c(=O)c1=Cc1ccc(O)cc1 | > 293 µM | > 293 µM |
| C=c1[nH]n(C(=O)c2ccccc2O)c(=O)c1=Cc1ccc(O)cc1 [2-(2-Hydroxy-benzoyl)-4-[1-(4-hydroxy-phenyl)-meth-(E)-ylidene]-5-methyl-2,4-dihydro-pyrazol-3-one] | 0.6 µM | 0.9 µM |
| C=c1[nH]n(C(=O)c2ccc(Cl)cc2)c(=O)c1=Cc1ccccc1O [2-(4-Chloro-benzoyl)-4-[1-(2-hydroxy-phenyl)-meth-(E)-ylidene]-5-methyl-2,4-dihydro-pyrazol-3-one] | > 293 µM | > 293 µM |
| C=c1[nH]n(C(=O)c2ccc(Cl)cc2)c(=O)c1=Cc1ccc(OC)c(OC)c1 [2-(4-Chloro-benzoyl)-4-[1-(3,4-dimethoxy-phenyl)-meth-(E)-ylidene]-5-methyl-2,4-dihydro-pyrazol-3-one] | > 260 µM | > 260 µM |

The next lines start with the values.

| IC50 (Integrase [1]) | IC50 (Integrase [2]) | SMILES |
| --- | --- | --- |
| 0.9 µM | – | C=c1[nH]n(C(=O)c2ccccc2O)c(=O)c1=Cc1ccc(OC)cc1 |
| 0.8 µM | 0.6 µM | C=c1[nH]n(C(=O)c2ccccc2O)c(=O)c1=Cc1ccc(O)c(OC)c1 [2-(2-Hydroxy-benzoyl)-4-[1-(4-hydroxy-3-methoxy-phenyl)-meth-(E)-ylidene]-5-methyl-2,4-dihydro-pyrazol-3-one] |
| > 293 µM | > 293 µM | C=c1[nH]n(C(=O)c2ccc(Cl)cc2)c(=O)c1=Cc1cccc(O)c1 [2-(4-Chloro-benzoyl)-4-[1-(3-hydroxy-phenyl)-meth-(E)-ylidene]-5-methyl-2,4-dihydro-pyrazol-3-one] |
| > 280 µM | > 280 µM | C=c1[nH]n(C(=O)c2ccc(Cl)cc2)c(=O)c1=Cc1ccc(Cl)cc1 [2-(4-Chloro-benzoyl)-4-[1-(4-chloro-phenyl)-meth-(E)-ylidene]-5-methyl-2,4-dihydro-pyrazol-3-one] |
| > 240 µM | > 240 µM | C=c1[nH]n(C(=O)c2ccc(Cl)cc2)c(=O)c1=Cc1cc(OC)c(OC)c(OC)c1 [2-(4-Chloro-benzoyl)-5-methyl-4-[1-(3,4,5-trimethoxy-phenyl)-meth-(E)-ylidene]-2,4-dihydro-pyrazol-3-one] |

Reference: BindingDB's records for doi:10.1021/jm9801760 (National Cancer Institute-Bethesda, 1998)
